Patent publication US20130095503A1, “SERUM SPLA2-IIA AS DIAGNOSIS MARKER FOR PROSTATE AND LUNG CANCER” (UNIVERSITY OF CINCINNATI, priority 2010, published 2013)

Tests used:
Format in all cases: cell-based, human
[1] = system: sPLA2-IIA gene promoter; assay: sPLA2-IIA(-800)-Luc reporter (luciferase) assay in LNCaP-AI cells; settings: about 24 hours, FIG. 1; for effect on EGF-stimulated promoter activity of sPLA2-IIA gene: EGF ~100 ng/mL with inhibitor ~20 μM (CI-1033 ~8 μM)
Procedure: (§1) The role of sPLA2-IIA gene regulation in prostate cancer cells via the HER/HER2-PI3K-Akt-NF-κB pathway was investigated. A reporter assay was performed by transiently transfecting sPLA2-IIA(-800)-Luc (˜0.25 μg/well) reporter in LNCaP-AI cells (˜10^5 cells/well in 12-well plate). The cells were then treated with epidermal growth factor (hereinafter “EGF”) (˜100 ng/mL) without or with EGFR inhibitors Erlotinib (˜20 μM) and Gefitinib (˜20 μM), EGFR/HER2 dual inhibitors Lapatinib (˜20 μM) and CI-1033 (˜8 μM), phosphoinositide 3-kinase (hereinafter “PI3K”) inhibitor LY294002 (˜20 μM), and NF-κB inhibitor Bortezomib (˜20 μM) for about 24 hours. A luciferase assay was performed according to a standard protocol with Renilla luciferase as an internal control. Another reporter assay was performed wherein LNCaP-AI cells were starved in 1% stripped medium for about 24 hours. The cells were the treated with Erlotinib (˜20 μM), Gefitinib (˜20 μM), Lapatinib (˜20 μM), CI-1033 (˜8 μM), LY294002 (˜20 μM), Bortezomib (˜20 μM), and/or Heregulin-α (˜50 ng/mL) without or with EGF (˜100 ng/mL) for about 24 hours.

[2] = system: sPLA2-IIA protein expression in LNCaP-AI cells; assay: Western blot of sPLA2-IIA protein expression in LNCaP-AI cells; settings: about 24 hours; for effect on sPLA2-IIA protein expression: basal states and EGF-induced expression, inhibitor ~20 μM (CI-1033 ~8 μM), FIGS. 2-4
Procedure: as §1
Cell extracts were then prepared and subjected to western blot analysis for sPLA2-IIA, P-Akt, Akt, and β-actin. Briefly, aliquots of samples with the same amount of protein, determined using the Bradford assay (BioRad, Hercules, Calif.), were mixed with loading buffer (final concentrations of 62.5 mM Tris-HCl, pH 6.8, 2.3% sodium dodecyl sulfate, 100 mM dithiothreitol, and 0.005% bromophenol blue), boiled, fractionated in a sodium dodecyl sulfate-polyacrylamide gel electrophoresis, and transferred onto a 0.45-μm nitrocellulose membrane (BioRad). The filters were blocked with 2% fat-free milk in PBS, and probed with primary antibody in phosphate buffered saline containing 0.1% Tween 20 (i.e., PBST) and 1% fat-free milk. The membranes were then washed four times in PBST and incubated with horseradish peroxidase-conjugated secondary antibody (BioRad) in PBST containing 1% fat-free milk. After washing four times in PBST, the membranes were visualized using the ECL Western Blotting Detection System (Amersham Co, Arlington Height, Ill.).

[3] = system: sPLA2-IIA secretion by LNCaP-AI cells; assay: ELISA of sPLA2-IIA secreted into culture medium of LNCaP-AI cells; settings: inhibitor ~20 μM (CI-1033 ~8 μM), about 24 hours, FIG. 7
Procedure: Finally, LNCaP-AI cells were starved in 1% stripped medium for about 24 hours. The cells were then treated with Erlotinib (˜20 μM), Gefitinib (˜20 μM), Lapatinib (˜20 μM), CI-1033 (˜8 μM), LY294002 (˜20 μM), and Bortezomib (˜20 μM) for about 24 hours. Cell culture medium was collected from each sample and subjected to ELISA for sPLA2-IIA. The condition medium samples were diluted 10 times for ELISA. The average of duplicate samples was converted to nanogram per milliliter against standard curve. The data represent one of five repeated experiments.

[4] = system: sPLA2-IIA expression in LAPC-4 and DU145 cells; assay: Western blot of sPLA2-IIA expression in LAPC-4 and DU145 cells; settings: Lapatinib ~20 μM, via blocking PI3K-Akt signaling, FIG. 5
Procedure: A reporter assay was performed by transiently transfecting sPLA2-IIA(-800)-Luc (˜0.25 μg/well) reporter in LNCaP-AI cells (˜10^5 cells/well in 12-well plate). The cells were then treated with epidermal growth factor (hereinafter “EGF”) (˜100 ng/mL) without or with EGFR inhibitors Erlotinib (˜20 μM) and Gefitinib (˜20 μM), EGFR/HER2 dual inhibitors Lapatinib (˜20 μM) and CI-1033 (˜8 μM), phosphoinositide 3-kinase (hereinafter “PI3K”) inhibitor LY294002 (˜20 μM), and NF-κB inhibitor Bortezomib (˜20 μM) for about 24 hours. A luciferase assay was performed according to a standard protocol with Renilla luciferase as an internal control. Another reporter assay was performed wherein LNCaP-AI cells were starved in 1% stripped medium for about 24 hours. […] Briefly, aliquots of samples with the same amount of protein, determined using the Bradford assay (BioRad, Hercules, Calif.), were mixed with loading buffer (final concentrations of 62.5 mM Tris-HCl, pH 6.8, 2.3% sodium dodecyl sulfate, 100 mM dithiothreitol, and 0.005% bromophenol blue), boiled, fractionated in a sodium dodecyl sulfate-polyacrylamide gel electrophoresis, and transferred onto a 0.45-μm nitrocellulose membrane (BioRad). […]

Row | Compound | effect on EGF-stimulated promoter activity of sPLA2-IIA gene [1] | effect on sPLA2-IIA protein expression [2] | effect on sPLA2-IIA secretion (ELISA of culture medium) [3] | effect on sPLA2-IIA expression in LAPC-4 and DU145 cells [4] | promoter activity of sPLA2-IIA gene ([1]; EGF ~100 ng/mL) | sPLA2-IIA expression (western blot), stimulation by EGF ([2]; EGF ~100 ng/mL, FIGS. 2 and 3)
1 | CC(C)C[C@H](NC(=O)[C@H](Cc1ccccc1)NC(=O)c1cnccn1)B(O)O [Bortezomib] | blocked | dramatically downregulated | significantly inhibited | – | – | –
2 | C=CC(=O)Nc1cc2c(Nc3ccc(F)c(Cl)c3)ncnc2cc1OCCCN1CCOCC1 [CI-1033] | blocked | moderate impact | moderate effect | – | – | –
3 | C#Cc1cccc(Nc2ncnc3cc(OCCOC)c(OCCOC)cc23)c1 [Erlotinib] | blocked | moderate impact | moderate effect | – | – | –
4 | COc1cc2ncnc(Nc3ccc(F)c(Cl)c3)c2cc1OCCCN1CCOCC1 [Gefitinib] | blocked | moderate impact | moderate effect | – | – | –
5 | CS(=O)(=O)CCNCc1ccc(-c2ccc3ncnc(Nc4ccc(OCc5cccc(F)c5)c(Cl)c4)c3c2)o1 [Lapatinib] | blocked | dramatically downregulated | significantly inhibited | inhibited | – | –
6 | EGF: epidermal growth factor | – | – | – | – | significantly stimulated | stimulated sPLA2-IIA expression
